One assay concerns DNA. The conditions noted are these: DNA base pair:isopsoralen ratio of 24.3 to 1; 13.1 µg/ml; cited from earlier work.
The next assay concerns HIV 115-mer. Nature of the assay: Effect of unirradiated isopsoralen on PCR amplification. It counts as biochemical. The conditions noted are these: for Counts (CPM): unirradiated, 30 cycles, 42200 without AMDMIP. As for the experimental part: To systematically evaluate the effect of the presence of increasing concentrations of isopsoralen on PCR, AMDMIP (0, 100, 200, 400 µg/ml) was added to 10^7 copies of HIV 115-mer as template. PCR was then carried out for 30 cycles in the presence of α-^32P-dCTP. The PCR product was run on denaturing polyacrylamide gel and autoradiographed. The bands were thereafter cut and counted.

Assay [1] deals with Molt-4 human genomic DNA target. The assay is described as follows: Sterilization of genomic target before PCR (174 bp beta globin product). It counts as biochemical. Here is the method:
Four samples containing 1 µg of Molt-4 human genomic DNA target were prepared for PCR with primers KM 29 (5'-[…]) and HRI-12 (5'-[…]). These primers give a 174 bp product within the human beta globin gene. All four samples contained AMDMIP at 100 µg/ml, and were irradiated for 0, 5, 10 or 15 minutes prior to PCR amplification. […] Amplification were carried out in 1 x Taq buffer (50 mM KCl, 10 mM Tris pH 8.5, 2.5 mM MgCl2, 200 µg/ml gelatin), 175 µM each dNTP, 20 µM primer with 2.5 units of Taq polymerase and 100 µg/ml AMDMIP present during amplification. PCR was carried out for 30 cycles; one cycle = 30 sec at 94°C (denaturing), 30 sec at 55°C (primer annealing), and 60 sec at 72°C (extension). α-^32P-dCTP was used as an internal label. After amplification, the samples were analyzed for product by PAGE followed by autoradiaography.

The subject of the next assay is calf thymus DNA. The assay is described as follows: Binding of photoproduct to nucleic acid in the dark (DNA-associated tritium counts). The conditions noted are these: no device, no irradiation. As for the experimental part:
The nucleic acid binding properties of photoproduct were investigated with calf thymus DNA. 200 µg/ml of ^3H-AMDMIP (1 x 10^5 CPM/ml) in Taq buffer was irradiated at room temperature with either the CE-III device or the PTI device. This irradiation was performed for 15 minutes in the absence of nucleic acid. Following the irradiations, 200 µl of the irradiated solution was mixed with 200 µl of 1000 µg/ml DNA solution in Taq buffer. Several identical samples were prepared in this manner. one set of samples was allowed to react with the DNA for 2 hours at room temperature. The other set of samples was subjected to 30 cycles of heating and cooling by placing the samples in a thermal cycler [Perkin-Elmer Cetus DNA Thermal Cycler (Part No. N8010150); each cycle involved 93°C for 30 seconds, 55°C for 30 seconds and 72°C for 1 minute]. When the DNA reactions were complete, all samples were analyzed for DNA-associated tritium counts (CPM) by following the flow chart outlined in FIgure 17.
For calculation purposes, these adducts are reported as if they represented monomers of AMDMIP. Regardless of the accuracy of this approximation, the process of irradiating ^3H-AMDMIP clearly results in a tritiated product which associates (i.e. binds) with DNA in the absence of subsequent activating wavelengths of electromagnetic radiation. […]

The subject of the next assay is 115-mer. The assay is described as follows: Crosslinkable Oligonucleotide Probe Analysis (COP) of sterilized PCR product. It counts as biochemical, HIV. An excerpt: Because of this, these isopsoralen-modified single strands should remain detectable by hybridization procedures. […] Preparation of Samples: The HIV 115-mer system with primers SK-38/SK-39 was used for the experiment (see Figure 36, "HIV Oligonucleotide System"). Two types of starting template were used: previously amplified 115-mer or genomic DNA, isolated from an individual known to be infected with HIV (MACS sample). For previously amplified 115-mer between 10^5 and 10^6 copies were used for starting template. For the genomic (MACS) sample, approximately 1 µg (3 x 10^5 copies) of genomic DNA were used. Two PCR samples were prepared for each type of template then amplification was carried out for either 20 or 30 cycles. One of the two PCR samples contained AMDMIP at 200 µg/ml while the other was AMDMIP free. Following amplification, the AMDMIP containing samples were divided and half were irradiated. Analysis (OH or COP) was then done on the three samples from each set (AMDMIP free, AMDMIP unirradiated, and AMDMIP irradiated) for each cycle number. The AMDMIP free samples served as control, the AMDMIP unirradiated sampes adressed the effect of non-covalently bound AMDMIP on detection, and AMDMIP irradiated samples addressed the effect of covalently bound AMDMIP on detection.
COP and OH assays were performed a follows. 10 µl of the PCR reaction mixture was added to 3.3 µl of "probe mix" [5'-labelled SK-19 (normal or monoadducted) at 10^-8 M containing EDTA and an appropriate salt mixture], overlaid with 30-40 µl of light mineral oil, then heated to 95-100°C for 5 minutes. For COP, the hybridization mixture as placed in the PTI device at 56°C and irradiated for 15 minutes. Following this, loading dyes (containing urea or formamide) were added, the sample heated to 95-100°C for 5 minutes, quick chilled on wet ice, then loaded on a denaturing PAGE gel followed by electrophoresis under denaturing conditions. For OH reactions, the hybridization mixture was incubated at 56°C for 30 minutes, loading dyes added, and aliquots loaded directly into a native PAGE gel followed by electrophoresis under native conditions. 1. Samples 1-6 contain previously amplified 115-mer that was re-amplified either 20 (samples 1,3,5) or 30 (Samples 2,4,6) cycles then detected by COP. Samples 1 & 2 are controls (without AMDMIP); samples 3 and 4 are (with AMDMIP and with light) sterilized samples; samples 5 & 6 are (with AMDMIP but without light) controls. The bands corresponding to amplified 115-mer crosslinked to labelled 41-mer probe (SK-19 MA) are the upper bands in Figure 46. Samples 11-16 are the same series except the MACS sample was used as template.

Assay [2] concerns DNA polymerase I from E. coli. B. The conditions noted are these: Piette and Hearst 1983; nick-translating a double-stranded template; cited from earlier work.
Setting [3] is: Sample 4: previously amplified 115-mer, 30 cycles, with AMDMIP and with light.
[4] abbreviates: Sample 5: previously amplified 115-mer, 20 cycles, with AMDMIP but without light.
[5] abbreviates: Sample 6: previously amplified 115-mer, 30 cycles, with AMDMIP but without light.
Where [6] appears, read: Sample 13: MACS genomic template, 20 cycles, with AMDMIP and with light.
[7] abbreviates: Sample 14: MACS genomic template, 30 cycles, with AMDMIP and with light.
Setting [8] is: Sample 15: MACS genomic template, 20 cycles, with AMDMIP but without light.
Where [9] appears, read: Sample 16: MACS genomic template, 30 cycles, with AMDMIP but without light.

For the molecule “4'-Aminomethyl-4,5'-dimethylisopsoralen [AMDMIP]”, the “1 photobound AMDMIP per n DNA base pairs” value in the assay on DNA was 151 DNA base pairs. Besides, the “concentrations compatible with the PCR system” value in the assay on HIV 115-mer (HIV 115-mer system) is “up to 400 µg/ml”. Besides, the “Counts (CPM)” value with HIV 115-mer ([AMDMIP] 100 µg/ml) worked out at 77200 CPM; in the assay with HIV 115-mer ([AMDMIP] 200 µg/ml) it was 77500 CPM; with HIV 115-mer ([AMDMIP] 400 µg/ml) it was 69400 CPM. For the same molecule, the “impact of unirradiated AMDMIP on amplification” value in assay [1] (100 µg/ml, data not shown) is given as “no significant impact on amplification”. Further, the “amplification after irradiation in the presence of AMDMIP” value in assay [1] (AMDMIP 100 µg/ml, irradiated 0, 5, 10 or 15 minutes prior to PCR, 30 cycles) is listed as “no amplification of the sterilized genomic target”. Also, the “ADDUCTS PER” value with calf thymus DNA (dark reaction Room Temp. (2 hours)) is listed as 1.1; in the assay on calf thymus DNA (dark reaction Thermally Cycled (30 cycles)), 0.9. The CPM in the assay with 115-mer (Sample 3: previously amplified 115-mer, 20 cycles, with AMDMIP (200 µg/ml) and with light) is 1944 CPM; in the assay with 115-mer (setting [3]), 36452 CPM; with 115-mer (setting [4]) it was 4480 CPM; with 115-mer (setting [5]) it was 39596 CPM; with 115-mer (setting [6]) it was 460 CPM; in the assay on 115-mer (setting [7]), 41777 CPM. Moreover, the CPM in the assay with 115-mer (setting [8]) was determined as 464 CPM; in the assay with 115-mer (setting [9]), 35176 CPM. Further, the “CPM (%) relative to sample without AMDMIP” value was found to be 62% in the assay on 115-mer (Sample 3: previously amplified 115-mer, 20 cycles, with AMDMIP and with light); 83% with 115-mer (setting [3]); 144% with 115-mer (setting [4]); 90% in the assay with 115-mer (setting [5]); 52% in the assay on 115-mer (setting [6]); 78% with 115-mer (setting [7]). Besides, the “CPM (%) relative to sample without AMDMIP” value came out at 53% with 115-mer (setting [8]) and 66% in the assay on 115-mer (setting [9]).
For the molecule `Cc1cc2occc2c2oc(=O)ccc12` [MIP, 5-Methylisopsoralen], the “inhibition of E. Coli polymerase I by covalently bound monoadducts” value in assay [2] was “not inhibited”.

The values above are taken from patent EP0497921B1, “METHOD FOR INHIBITING ENZYMATIC SYNTHESIS OF NUCLEIC ACIDS USING ISOPSORALENS” (ISAACS, Stephen T., priority 1989, dated 1991).
